Series [1] can be described thus: Pharmacokinetic study in mice. It is filed as in vivo, male CD1 mice. Details: AUClast/D: unit not given here. As to conditions: for half-life / bioavailability: male, CD1, mouse.
The subject of series [2] is DNA synthesis in E. faecalis EF1509. Nature of the series: Macromolecular synthesis assay: DNA synthesis. To be noted: Enterococcus faecalis; E. faecalis EF1509, [3H]Thymidine incorporation; read-out: IC50 inhibition of DNA synthesis. It is filed as cell-based. How it is done:
(§1) The effect of compounds on the macromolecular synthetic pathways of E. faecalis EF1509 were measured as follows: Cells were grown at 35°C overnight on Tryptic Soy Agar Broth (Remel, Lenexa, KS), and growth from the plate was used to inoculate 15 ml of Mueller Hinton Broth. The culture was grown to early exponential growth phase (OD600 = 0.2 to 0.3) while incubating in a shaker at 35°C and 150 rpm. For each macromolecular assay, the test agents were added at either 0, 0.25, 0.5, 1, 2, or 4, -fold their respective MIC values for E. faecalis EF1509.
For DNA and protein synthesis, 100 μl of cell culture reaching early exponential phase was added to triplicate wells containing various concentrations of test compound or control antibiotics (2.5 μl) at 40X the final concentration in 100% DMSO (0.1% methanol in water for Rifampicin). A 2.5% DMSO treated culture served as the “no drug” control for all experiments. Cells were added in 1.25X strength MHB to account for the volume of drug added to each reaction, or in M9 minimal medium for protein synthesis reactions. […] After washing five times with 200 μl per well of cold 5% TCA, the filters were allowed to dry, and then counted using a Packard Top Count microplate scintillation counter.

Series [3] relates to cell wall synthesis in E. faecalis EF1509. Nature of the series: Macromolecular synthesis assay: cell wall synthesis. In kind it is cell-based. To be noted: Enterococcus faecalis; E. faecalis EF1509, [14C] N-acetyl-glucosamine incorporation; read-out: IC50 inhibition of cell wall synthesis. Here is the method: The effect of compounds on the macromolecular synthetic pathways of E. faecalis EF1509 were measured as follows: Cells were grown at 35°C overnight on Tryptic Soy Agar Broth (Remel, Lenexa, KS), and growth from the plate was used to inoculate 15 ml of Mueller Hinton Broth. The culture was grown to early exponential growth phase (OD600 = 0.2 to 0.3) while incubating in a shaker at 35°C and 150 rpm. For each macromolecular assay, the test agents were added at either 0, 0.25, 0.5, 1, 2, or 4, -fold their respective MIC values for E. faecalis EF1509. […] For cell wall synthesis, bacterial cells in early exponential growth phase were transferred to M9 minimal medium and added to 1.5 ml eppendorf tubes (100 μl/tube) containing various concentrations of test compound or control antibiotics (2.5 μl) at 40X the final concentration in 100% DMSO as described above. Following a 5 min incubation at 37°C, [^14C] N-acetyl-glucosamine (0.4 μCi/reaction) was added to each tube and incubated for 45 min in a 37°C heating block. Reactions were stopped through the addition of 100 μl of 8% SDS to each tube. […] After washing three times with 5 ml of 0.1% SDS, the filters were rinsed two times with 5 ml of deionized water, allowed to dry, and then counted using a Beckman LS3801 liquid scintillation counter.

For series [4], the system named is lipid synthesis in E. faecalis EF1509. Kind of series: Macromolecular synthesis assay: lipid synthesis. As to conditions: Enterococcus faecalis; E. faecalis EF1509, [3H] glycerol incorporation; read-out: IC50 inhibition of lipid synthesis. It is filed as cell-based. Here is the method:
as §1
For lipid synthesis, bacterial cells were grown to early exponential growth phase in MHB and 100 μl was added to 1.5 ml Eppendorf tubes (in triplicate) containing various concentrations of test compound or control antibiotics as described above. Following a 5 min incubation at room temp., [^3H] glycerol was added at 0.5 μCi per reaction. Reactions were allowed to proceed at room temperature for 40 min and then stopped through the addition of 375 μl of chloroform/methanol (1:2) followed by vortexing for 20 sec after. Chloroform (125 μl) was then added to each reaction and vortexed, followed by the addition of 125 μl dH2O and vortexing. […] Samples were then counted via liquid scintillation counting. […]

The next series deals with A. baumanii ATCC 19606. Kind of series: Antibacterial activity (MIC, broth dilution). As to conditions: CLSI, in µg/mL. It is filed as cell-based, Acinetobacter baumanii. The gist of the method: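 MIC determined by broth dilution following CLSI standards, using A. baumanii ATCC 19606.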
The next series concerns S. aureus MRSA 1094. Nature of the series: Antibacterial activity (MIC, broth dilution). In kind it is cell-based. As to conditions: CLSI. Here is the method:
(§2) Determination of the Minimal Inhibitory Concentrations (MIC) by dilution was carried out by broth dilution according to CLSI standards.
On the technique in general: Dilution methods test growth across graded concentrations, often in twofold steps.

The test system of series [5] is K. pneumoniae NR-15411 (KPC). Kind of series: Antibacterial activity (MIC, broth dilution). It is filed as cell-based. As to conditions: CLSI. How it is done: as §2
The subject of series [6] is K. pneumoniae NR-15410 (KPC). Nature of the series: Antibacterial activity (MIC, broth dilution). It is filed as cell-based. As to conditions: CLSI. How it is done: as §2
The test system of another series is P. aeruginosa X13273. Nature of the series: Antibacterial activity (MIC, broth dilution). In kind it is cell-based. To be noted: CLSI, in µg/mL. How it is done:
as §2

Series [7] has as its system S. aureus HFH-30123 (MRSA). Kind of series: Antibacterial activity (MIC, broth dilution). It is filed as cell-based. As to conditions: CLSI. Here is the method:
as §2

In a further series the test system is E. cloacae ATCC 13047. Kind of series: Antibacterial activity (MIC, broth dilution). In kind it is cell-based. As to conditions: CLSI. Here is the method: as §2
In a further series the test system is E. faecalis EF1509. Nature of the series: MIC for the strain used in macromolecular synthesis assays. It is filed as cell-based. As to conditions: Enterococcus faecalis. Here is the method:
as §2, §1

Where [8] appears, read: PO 5 mg/kg, male CD1 mice, 5 mg/kg.
Where [9] appears, read: mouse, plasma, IV 2.5 mg/kg, male CD1 mice.
Setting [10] is: mouse, plasma, PO 5 mg/kg, male CD1 mice.

Consider two compounds from article PMC5077133, “Towards Development of Small Molecule Lipid II Inhibitors as Novel Antibiotics” (PLoS ONE, 2016).

Read-outs that look alike come from different tables or passages of the source.

Turning to `CN1/C(=C/C=C/c2cc(-c3ccccc3)cc(-c3ccccc3)[o+]2)C(C)(C)c2ccccc21` [BAS-00127538, (1-Methyl-2,4-diphenyl-6-((1E,3E)-3-(1,3,3-trimethylindolin-2-ylidene)prop-1-en-1-yl)pyryl-1-ium) tetrafluoroborate, reference compound], the “Detection in plasma upon oral administration” value in [1] (oral administration (not shown)) is reported as “could not be detected”. Also, the IC50 in series [2] worked out at 1.8 µg/mL; in series [3] it was 1.1 µg/mL; in [4], 2.3 µg/mL. Also, the “Antibacterial activity (MIC) A. baumanii ATCC 19606” value with A. baumanii ATCC 19606 was found to be 4. For the same compound, the Antibacterial activity (MIC) S. aureus MRSA 1094 in the series with S. aureus MRSA 1094 was 0.5 µg/mL. In [5], this compound registered an Antibacterial activity (MIC) K. pneumoniae NR-15411 (KPC) of 16 µg/mL. In addition, the Antibacterial activity (MIC) K. pneumoniae NR-15410 (KPC) in series [6] amounted to 8 µg/mL. Also, the “Antibacterial activity (MIC) P. aeruginosa X13273” value with P. aeruginosa X13273 was “>=64”. The compound further returned an Antibacterial activity (MIC) S. aureus HFH-30123 (MRSA) in series [7] of 0.5 µg/mL. Besides, the Antibacterial activity (MIC) E. cloacae ATCC 13047 in the series on E. cloacae ATCC 13047 came to 32 µg/mL. The compound also had an MIC in the series with E. faecalis EF1509 of 2 µg/mL.
In the case of `CN(C)c1ccc(/C=C/c2cc(-c3ccc(Br)cc3)cc(-c3ccc(Br)cc3)[o+]2)cc1` [6jc48-1], the AUClast/D in [1] (IV […], male CD1 mice) was 536±47. In [1] (PO 5 mg/kg, male CD1 mice), the AUCExtrap came out at 48.6%, the AUClast/D was 9.4 and the Vss_obs is 1.75 L/kg. Besides, in series [1] (setting [8]), the “Finf (bioavailability)” value was found to be 2.54% and the T1/2 is 2.78 h. In series [1] (plasma, iv, […], male CD1 mice), this compound showed a half-life of over 13 h. In series [1] (plasma, po, 5 mg/kg, PO 5 mg/kg, male CD1 mice), this compound had a half-life of about 3 h. Also, in [1] (plasma, po, 5 mg/kg, PO 5 mg/kg, male CD1 mice, read-out: Finf (bioavailability)), the bioavailability was about 2.5%. Further, the bioavailability in series [1] (plasma, po, 5 mg/kg, PO 5 mg/kg, male CD1 mice, read-out: Flast (bioavailability)) is 1.9%. In series [1] (setting [9]), the AUC(0-inf) turned out to be 1770 ± 120 ng·h/mL, the AUC(0-t) is 1340 ± 117 ng·h/mL, the Cmax was 1040 ± 323 ng/mL and the MRT came to 7.29 ± 0.27 h. In addition, the clearance in series [1] (mouse, plasma, IV 2.5 mg/kg, male CD1 mice, read-out: Cl_obs) was determined as 23.6 ± 1.7 mL/min/kg. In [1] (setting [10]), the AUC(0-inf) is 90 ng·h/mL, the AUC(0-t) amounted to 46.9 ng·h/mL and the Cmax is 19.1 ng/mL. Further, the half-maximal inhibitory concentration (IC50) in series [2] turned out to be 8.3 µg/mL. Besides, in [3], the IC50 came out at 3.8 µg/mL. The IC50 in series [4] came to 7.8 µg/mL. Also, the “Antibacterial activity (MIC) A. baumanii ATCC 19606” value with A. baumanii ATCC 19606 was “>=64”. Moreover, in the series on S. aureus MRSA 1094, the Antibacterial activity (MIC) S. aureus MRSA 1094 came to 32 µg/mL. In [5], the Antibacterial activity (MIC) K. pneumoniae NR-15411 (KPC) is at least 64 µg/mL. Moreover, the Antibacterial activity (MIC) K. pneumoniae NR-15410 (KPC) in series [6] is at least 64 µg/mL. Further, in the series with P. aeruginosa X13273, the “Antibacterial activity (MIC) P. aeruginosa X13273” value was “>=64”. In series [7], this compound yielded an Antibacterial activity (MIC) S. aureus HFH-30123 (MRSA) of 32 µg/mL. Besides, in the series with E. cloacae ATCC 13047, the Antibacterial activity (MIC) E. cloacae ATCC 13047 was at least 64 µg/mL. In addition, the MIC in the series with E. faecalis EF1509 amounted to 4 µg/mL.

One may read the IC50 as the concentration that inhibits the measured activity by half. By MIC is commonly meant the smallest concentration in the dilution series that meets the test's criterion for growth inhibition. Broadly, the half-life is how long it takes for the measured level to halve. As a reminder, the bioavailability is the share of a dose that reaches the circulation, judged against a reference dose that is usually intravenous. As usually defined, the AUC(0-inf) is total exposure, with the tail of the curve extrapolated. A word on the AUC(0-t): it is exposure summed from dosing to a finite time, without extrapolation to infinity. In general, Cmax refers to the highest concentration seen after dosing. The MRT is a mean duration of stay, worked out from the concentration-time curve.
